Source: EP0076430A1, “Compositions having antimicrobial activity” (MEDEA RESEARCH S.r.l., priority 1981, dated 1983)
Converted amounts (≈) assume the structure as drawn.

Experiments:
Type in all cases: cell-based
[1] = system: Bacillaceae; assay: Minimum inhibitory concentration (MIC), broth dilution; settings: 24 h; strain 1722
Procedure: (§1) Different bacterial species isolated from patients are employed.
(§2) Compounds AB5 and AB6 are dissolved in ethanol (ethyl alcohol 95°, C. Erba) and all the subsequent dilutions performed in distilled water. The chlorhexidine is diluted from the commercial product already dissolved in distilled water.
(§3) The broth dilution is employed to assess MIC values for all strains. Sterile microtiter plates with U bottom with 96 wells are employed. 0.1 Ml of liquid medium (tryptose Roche broth) are put in each well, the plates are kept at -20° and, before use, at room temperature.
(§4) The disinfectant agent is put in the wells of the row 2 at a concentration of 4000 mcg/ml (real 2000 mcg/ml) and then with a 100 µl micro- pipette dilutions are performed from row 2 to row 11.
(§5) The row 1 is the control of the medium and the row 12 is the control for the fertility of the medium itself.
(§6) After having performed the dilutions, 0.01 ml of a 24 hrs bacterial broth culture (previously diluted at 10^-4 for Gram-negative strains and 10-2 for Gram-positive ones) are placed in all wells, from the rows 2 to 12. After the inoculation, the plate is hermetical ly sealed with adhesive transparent band and an hole is done with a needle. The plates are kept at 35° for 24 hours and a macroscopic reading is carried out; in case of non uniform reading, taking place only for chlorhexidine, the cultures from the wells are plated on agar-heart-brain medium (Sclavo) through Dinatech apparatus (head "Inoculum 96") and the reading of the growth is carried out in the following 24 hours.

[2] = system: E.coli; assay: as above; settings: Escherichia coli, 24 h
Procedure: as §1, §2, §3, §4, §5, §6

[3] = system: Enterobacter; assay: as above; settings: 24 h, strain 2643
Procedure: as §1, §2, §3, §4, §5, §6

[4] = system: Indole-positive Proteus; assay: as above; settings: 24 h
Procedure: as §1, §2, §3, §4, §5, §6

[5] = system: Pseudomonas aeruginosa; assay: as above; settings: 24 h
Procedure: as §1, §2, §3, §4, §5, §6

[6] = system: Salmonella sp.; assay: as above; settings: 24 h, strain 2482
Procedure: as §1, §2, §3, §4, §5, §6

[7] = system: Staph. aureus; assay: as above; settings: Staphylococcus aureus, 24 h; strain 2672
Procedure: as §1, §2, §3, §4, §5, §6

[8] = system: E. coli; assay: Bactericide activity at different contact times; design: key to Bactericide action (growth / no growth): + = growth; - = no growth; settings: 200 p.p.m.
Procedure: as §1, §2
(§7) It is assessed through Dinatech apparatus with "Inoculum 96" head.
(§8) Chemical compounds at established concentra tions are placed in amount of 1 ml in the con tainers, the bacterial inoculum is then added in amount of 0.1 ml (24 hrs culture) and at pre-established times (3,5,10,30,60 and 120 mi nutes), through the head, the mixture compound/ disinfectant agent is transferred in solid medium (agar-heart-brain medium). After incubation at 35°C for 24 hours, the reading is carried out. The tests are repeated in presence of human serum at the concentration of 10%.

[9] = system: Indole-positive Proteus; assay: Bactericide activity at different contact times; design: key to Bactericide action (growth / no growth): + = growth; - = no growth; settings: 200 p.p.m.
Procedure: as §1, §2, §7, §8

[10] = system: Serratia marcescens; assay: Bactericide activity at different contact times; design: key to Bactericide action (growth / no growth): + = growth; - = no growth; settings: 200 p.p.m.
Procedure: as §1, §2, §7, §8

[11] = system: Pseudomonas aeruginosa; assay: Bactericide activity at different contact times; design: key to Bactericide action (growth / no growth) / Bactericide activity (growth / no growth), serum interference test: + = growth; - = no growth; settings: 200 p.p.m.
Procedure: as §1, §2, §7, §8

[12] = system: B. subtilis; assay: Bactericide activity at different contact times; design: key: + = growth; - = no growth; settings: 200 p.p.m.
Procedure: as §1, §2, §7, §8

[13] = system: Salmonella sp.; assay: Bactericide activity at different contact times; design: key: + = growth; - = no growth; settings: 200 p.p.m.
Procedure: as §1, §2, §7, §8

[14] = system: Staph. aureus; assay: Bactericide activity at different contact times; design: key: + = growth; - = no growth; settings: 200 p.p.m.
Procedure: as §1, §2, §7, §8

[15] = system: Different bacterial species isolated from patients; assay: Bactericide activity, minimum active concentration on the strains; settings: Homo sapiens, 24 h
Procedure: as §1
Strains of E. coli, Pseudomonas aeruginosa, indole-positive and negative Proteus, Staphilococcus aureus, Enterobacter, Salmonella sp., Serratia marcescens, B. subtilis and Bacillaceae are investigated.
as §2, §7, §8
For chlorhexidine, the minimum active concentration is 200 p.p.m.

N=C(NCCCCCCNC(=N)NC(=N)Nc1ccc(Cl)cc1)NC(=N)Nc1ccc(Cl)cc1 [Chlorhexidine, N,N'-bis-(4-chlorophenyl)-3,12-diimino-2,4,11,13-tetraazatetradecandiimidamide, reference compound]
MIC [1]: < 0.98 µg/mL | MIC ([2]; strain 2096): 1000 µg/mL (≈ 1980 µM) | MIC ([2]; strain 2117): 1000 µg/mL (≈ 1980 µM) | MIC ([2]; strain 2456): 500 µg/mL (≈ 989 µM) | MIC ([2]; strain 2568): 2000 µg/mL (≈ 3960 µM) | MIC [3]: 2000 µg/mL (≈ 3960 µM) | MIC ([4]; strain 2075): > 1000 µg/mL | MIC ([4]; strain 2083): 1000 µg/mL (≈ 1980 µM) | MIC ([4]; strain 2105): > 1000 µg/mL | MIC ([4]; strain 2410): 2000 µg/mL (≈ 3960 µM) | MIC ([4]; strain 2447): 2000 µg/mL (≈ 3960 µM) | MIC ([4]; strain 2674): > 2000 µg/mL | MIC ([5]; strain 2458): 1000 µg/mL (≈ 1980 µM) | MIC ([5]; strain 2488): 2000 µg/mL (≈ 3960 µM) | MIC ([5]; strain 2508): > 2000 µg/mL | MIC ([5]; strain 2509): 2000 µg/mL (≈ 3960 µM) | MIC ([5]; strain 2670): > 2000 µg/mL | MIC [6]: 500 µg/mL (≈ 989 µM) | MIC [7]: < 0.98 µg/mL | contact time for total bactericide activity [8]: 30 to 120 min | Bactericide action (growth / no growth) ([8]; contact time 3 min): + | Bactericide action (growth / no growth) ([8]; contact time 5 min): + | Bactericide action (growth / no growth) ([8]; contact time 10 min): + | Bactericide action (growth / no growth) ([8]; contact time 30 min): - | Bactericide action (growth / no growth) ([8]; contact time 60 min): - | Bactericide action (growth / no growth) ([8]; contact time 120 min): - | Bactericide action (growth / no growth) ([9]; contact time 3 min): + | Bactericide action (growth / no growth) ([9]; contact time 5 min): + | Bactericide action (growth / no growth) ([9]; contact time 10 min): + | Bactericide action (growth / no growth) ([9]; contact time 30 min): + | Bactericide action (growth / no growth) ([9]; contact time 60 min): + | Bactericide action (growth / no growth) ([9]; contact time 120 min): - | Bactericide action (growth / no growth) ([10]; contact time 3 min): + | Bactericide action (growth / no growth) ([10]; contact time 5 min): + | Bactericide action (growth / no growth) ([10]; contact time 10 min): + | Bactericide action (growth / no growth) ([10]; contact time 30 min): + | Bactericide action (growth / no growth) ([10]; contact time 60 min): - | Bactericide action (growth / no growth) ([10]; contact time 120 min): - | Bactericide action (growth / no growth) ([11]; contact time 3 min): + | Bactericide action (growth / no growth) ([11]; contact time 5 min): + | Bactericide action (growth / no growth) ([11]; contact time 10 min): + | Bactericide action (growth / no growth) ([11]; contact time 30 min): + | Bactericide action (growth / no growth) ([11]; contact time 60 min): - | Bactericide action (growth / no growth) ([11]; contact time 120 min): - | Bactericide action (growth / no growth) ([12]; contact time 3 min): + | Bactericide action (growth / no growth) ([12]; contact time 5 min): + | Bactericide action (growth / no growth) ([12]; contact time 10 min): + | Bactericide action (growth / no growth) ([12]; contact time 30 min): + | Bactericide action (growth / no growth) ([12]; contact time 60 min): - | Bactericide action (growth / no growth) ([12]; contact time 120 min): - | Bactericide action (growth / no growth) ([13]; contact time 3 min): + | Bactericide action (growth / no growth) ([13]; contact time 5 min): + | Bactericide action (growth / no growth) ([13]; contact time 10 min): + | Bactericide action (growth / no growth) ([13]; contact time 30 min): + | Bactericide action (growth / no growth) ([13]; contact time 60 min): - | Bactericide action (growth / no growth) ([13]; contact time 120 min): - | Bactericide action (growth / no growth) ([14]; contact time 3 min): + | Bactericide action (growth / no growth) ([14]; contact time 5 min): + | Bactericide action (growth / no growth) ([14]; contact time 10 min): + | Bactericide action (growth / no growth) ([14]; contact time 30 min): - | Bactericide action (growth / no growth) ([14]; contact time 60 min): - | Bactericide action (growth / no growth) ([14]; contact time 120 min): - | MBC [15]: 200 µg/mL (≈ 396 µM)
